Here are results for 3 compounds from ChEMBL document CHEMBL4229347, “Design, synthesis, and biological evaluation of novel ubiquitin-activating enzyme inhibitors” (2018).

Assay [1] deals with T1, Ubiquitin-like modifier-activating enzyme 1 (Homo sapiens) (UniProt P22314).
T1 sequence (whole entry): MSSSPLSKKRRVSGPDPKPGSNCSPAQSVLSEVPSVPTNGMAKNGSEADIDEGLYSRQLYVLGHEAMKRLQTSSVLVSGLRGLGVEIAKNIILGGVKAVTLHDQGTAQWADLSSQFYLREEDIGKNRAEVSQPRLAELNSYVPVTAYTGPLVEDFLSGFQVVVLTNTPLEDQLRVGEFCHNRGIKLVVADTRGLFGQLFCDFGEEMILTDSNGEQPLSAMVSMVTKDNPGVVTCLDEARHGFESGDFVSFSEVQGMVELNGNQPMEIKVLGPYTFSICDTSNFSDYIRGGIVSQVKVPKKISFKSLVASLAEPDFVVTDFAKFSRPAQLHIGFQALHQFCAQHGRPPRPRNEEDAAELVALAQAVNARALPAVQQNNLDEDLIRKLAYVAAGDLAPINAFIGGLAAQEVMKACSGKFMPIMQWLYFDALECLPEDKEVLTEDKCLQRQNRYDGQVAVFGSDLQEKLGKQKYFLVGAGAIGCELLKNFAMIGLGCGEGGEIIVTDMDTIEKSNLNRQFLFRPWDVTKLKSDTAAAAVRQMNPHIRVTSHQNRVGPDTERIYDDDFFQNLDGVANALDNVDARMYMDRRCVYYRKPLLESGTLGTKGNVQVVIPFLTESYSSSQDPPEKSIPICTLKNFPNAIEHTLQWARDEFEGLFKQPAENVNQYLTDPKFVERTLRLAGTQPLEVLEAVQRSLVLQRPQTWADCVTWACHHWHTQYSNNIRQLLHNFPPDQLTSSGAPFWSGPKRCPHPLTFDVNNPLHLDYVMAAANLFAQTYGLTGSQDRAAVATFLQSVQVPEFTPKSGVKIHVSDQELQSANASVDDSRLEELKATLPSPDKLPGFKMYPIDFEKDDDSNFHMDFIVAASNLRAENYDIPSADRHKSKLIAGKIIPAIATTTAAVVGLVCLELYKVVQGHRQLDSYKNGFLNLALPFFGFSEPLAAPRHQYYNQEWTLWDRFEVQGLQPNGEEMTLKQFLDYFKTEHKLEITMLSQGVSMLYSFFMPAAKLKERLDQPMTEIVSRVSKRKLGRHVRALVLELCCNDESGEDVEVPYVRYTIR
Description: Inhibition of recombinant human E1 expressed in Escherichia coli BL21(DE3) assessed as reduction in biotin-labelled ubiquitin-E1 conjugate formation up to 1000 uM pretreated for 30 mins followed by biotin-labelled ubiquitin addition and measured after 30 mins by Western blot analysis.

The target in assay [2] is Ubiquitin-conjugating enzyme E2 D2 (Homo sapiens) (UniProt P62837). Description: Inhibition of E2 (unknown origin) assessed as reduction in biotin-labelled ubiquitin-E2 conjugate formation at 10 to 1000 uM pretreated for 30 mins followed by biotin-labelled ubiquitin addition and measured after 60 mins in presence of E1 by Western blot analysis.
Assay [3] concerns the target T1, Ubiquitin-like modifier-activating enzyme 1 (Homo sapiens). Description: Inhibition of recombinant human E1 expressed in Escherichia coli BL21(DE3) assessed as reduction in biotin-labelled ubiquitin-E1 conjugate formation pretreated for 30 mins followed by biotin-labelled ubiquitin addition and measured after 30 mins by Western blot analysis. On the technique in general: A western blot detects proteins with antibodies after separation by electrophoresis.

The target of assay [4] is Ubiquitin-conjugating enzyme E2 D2 (Homo sapiens) (UniProt P62837). Briefly: Inhibition of E2 (unknown origin) assessed as reduction in biotin-labelled ubiquitin-E2 conjugate formation pretreated for 30 mins followed by biotin-labelled ubiquitin addition and measured after 60 mins in presence of E1 by Western blot analysis.
The target in assay [5] is T1, Ubiquitin-like modifier-activating enzyme 1 (Homo sapiens). Briefly: Reversible inhibition of recombinant human E1 expressed in Escherichia coli BL21(DE3) assessed as reduction in biotin-labelled ubiquitin-E1 conjugate formation at 100 uM pretreated for 60 mins followed by 2.5 uM biotin-labelled ubiquitin addition for 30 mins and subsequent 5 uM biotin-labelled ubiquitin addition by Western blot analysis.

Assay [6] shares this target. Briefly: Reversible inhibition of recombinant human E1 expressed in Escherichia coli BL21(DE3) assessed as reduction in biotin-labelled ubiquitin-E1 conjugate formation at 100 uM pretreated for 60 mins followed by 2.5 uM biotin-labelled ubiquitin addition for 30 mins and subsequent 5 uM biotin-labelled ubiquitin addition measured after 30 mins by Western blot analysis.

Assay [7] has the same target. Briefly: Inhibition of E1 in human MCF7 cells assessed as increase in p53 levels at 100 uM measured after 24 hrs by Western blot analysis. Type of assay: cell-based.
In a further assay the test system is MCF7. Briefly: Growth inhibition of human MCF7 cells after 72 hrs by alamar blue assay. Type of assay: functional. The settings on record: MCF7, 72 h. In general terms: Resazurin is reduced to fluorescent resorufin, in cell work by metabolically active cells.

Active and inactive are the calls of the source. The calls are words filed in the database; no cut-off is given here.

Ubiquitin-conjugating enzyme E2 D2 (Homo sapiens), sequence (P62837 whole entry, looked up): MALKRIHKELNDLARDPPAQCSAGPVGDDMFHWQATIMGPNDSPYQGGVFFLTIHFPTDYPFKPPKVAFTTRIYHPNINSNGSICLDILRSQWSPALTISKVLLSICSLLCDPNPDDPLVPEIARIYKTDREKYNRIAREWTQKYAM

With `COC(=O)CNC(=O)CCCc1ccc(OCCCNC(C)=O)c(CCCC(C)C)c1`, the inhibition result in assay [1] is “Active”. Further, in assay [2], the inhibition result was “inactive”.

On to `COC(=O)CNC(=O)CCCc1ccc(OCCCN)c(CCCC(C)C)c1`, for which the inhibition entry in assay [1] and in assay [2] was “inactive” in each case.

Usually GI50 stands for the concentration at which growth is held to half of that of the control. On to `COC(=O)CNC(=O)CCCc1ccc(OCCCNC(=O)c2ccccc2)c(CCCC(C)C)c1`, for which the inhibition entry in assay [3] and in assay [4] was “Dose-dependent effect” throughout. For the same compound, the inhibition entry in assay [5], in assay [6] and in assay [7] was “Active” in each case. In the assay with MCF7, this compound came in with a GI50 of 63.4 µM.
